In patent US12220446B2, “Use of upstream open reading frame 45aa-uORF nucleotide sequence of PTEN gene and polypeptide coded by 45aa-uORF” (THE FIRST AFFILIATED HOSPITAL, SUN YAT-SEN UNIVERSITY, priority 2017, dated 2025):

What was measured:
U251 cells [1] = experiment: Cell viability with CCK-8 after adding chemically synthesized polypeptide; assay type: cell-based; details: 25 μM, washed out after 4 hours, culture for 72 hours
U251 cells [2] = experiment: Ability of FITC-labelled micropeptide to enter cells (fluorescence microscopy); assay type: cell-based; details: FITC-attached micropeptide, 20 μM, 4 hours
Procedure: U251 cells were inoculated onto a glass slide at the density of 50%, and different concentrations of PTEN-45aa micropeptide t attached with FITC fluorescent groups (the micropeptide was dissolved in DMSO with a concentration being 20 μg/μL) were added to treat cells for 4 hours, then fixed with Faure Marin, and observed and photographed under a fluorescence microscope.

U251 neuroglioma cells = experiment: Lentiviral overexpression of 45aa-uORF in U251 cells: cell cycle, CCK-8 growth curve, clone formation assay, soft agar; assay type: cell-based; details: stably overexpressed via lentivirus vector vs U251-GFP control cells
Procedure: A vector for overexpressed 45aa-uORF-GFP (the skeleton of the vector is pCDH-CMV-MCS-EF1-Puro) was constructed and then used to transfect into HEK-293T cells together with lentivirus skeleton vectors PSPAX2, PMD2G in a ratio of 1:3:1 to package the lentivirus. The medium supernatants with the lentivirus were collected at 48 hours and 72 hours, respectively, and then used to infect U251 cells (added with 8 μg/ml polybrene to improve the infection efficiency). Puromycin ([…]) was employed for screening and removed three days later, and then the cells were proliferated normally. […]
1.5 Million U251 glioma cells of lentivirus overexpressed 45aa-uORF were inoculated into a T25 culture flask. […] Then, after being centrifuged and washed with PBS once, the precipitate was resuspended in 25 μg/mL Propidium Iodide (PI, sigma)/PBS solution, stained for 30 minutes away from light, and then detected on cell-cycle distribution thereof.
U251-GFP control cells or U251-45aa-uORF-GFP cells were inoculated into a 96-well plate in a quantity of 2000 cells per well. […] After cell adherence to the wall, the CCK-8 (Dojindo, CK04) reagent was added by 10 μL per well every 24 hours for culture at 37° C. for 1-4 hours, and then the absorbance (OD) of […] was detected. The absorbance value was directly proportional to the number of cells. […]

[3] = system: U251 neuroglioma transplanted tumors; experiment: U251 tumor subcutaneously implanted in nude mice, intratumoral peptide injection; assay type: in vivo; details: 25 μg/tumor every other day, 5-6 medications, vs control polypeptide of shuffled sequence
Procedure: In one aspect, the anti-tumor ability of the 45aa-uORF coded micropeptide is verified in vivo by animal experiments in the present invention. Mice are subcutaneously inoculated with 2 million U251 neuroglioma cells. Thirty days later, transplanted tumors are treated with the chemically synthesized 45aa-uORF coded micropeptide (25 ug/tumor) every other day.
U251 cells were inoculated to the left and right sides of nude mice by 2 million at each point. Thirty days later, the formation of tumors was observed, and the tumors were averagely divided into a control group and an experimental group by size (five nude mice and ten tumors in each group). The control group was injected with a control polypeptide every other day, and the experimental group was injected with the 45aa-uORF polypeptide every other day. Each tumor was injected with 25 μg synthetic peptide. The long diameters and short diameters of the tumors were measured before the medication, and after 5-6 times medications, the nude mice were sacrificed, and tumors were taken out, photographed and weighed. Tumor volume=½*long diameter*the square of short diameter

[4] = listed as 45aa-uORF coded polypeptide

MRDGGGRGPEPLSAPVSSRGGSALGEPAGLRRRQRRRFSPPLRLF (listed as Homo sapiens) [PTEN-45aa, oligopeptide of 45 amino acids coded by the 45aa-uORF in the 5′UTR of human PTEN gene]
growth and proliferation of glioma cells (cell viability, CCK-8) (U251 cells [1]; listed as 45aa-uORF coded micropeptide): significantly suppress the growth and proliferation | growth and proliferation of glioma cells (cell viability, CCK-8) (U251 cells [1]; [4]): significantly suppress the growth of glioma cells | ability of the micropeptide to enter cells (U251 cells [2]; [4]): can enter U251 cells | ability of the micropeptide to enter cells (U251 cells [2]; listed as PTEN-45aa micropeptide): could enter the U251 cells smoothly | growth and proliferation of U251 glioma cells (U251 neuroglioma cells): significantly suppress the growth and proliferation | clone formation of U251 neuroglioma cells (CFA, soft agar) (U251 neuroglioma cells; two weeks): significantly suppress the growth, proliferation and clone formation | growth and formation of U251 transplanted tumors [3]: significantly suppress the growth and formation of the tumors
